Where a chain is given by its changes, count along the chain named. Like-named read-outs stand apart in the source and are kept apart here.
Assays:
[1] = target: T1, hAR (human androgen receptor) (Homo sapiens, UniProt P10275); assay: Competitive binding analysis on hAR extracts with 3H-DHT tracer
T1 construct: made in house; host or cells: baculovirus/Sf9 insect cells (extract)
T1 sequence (P10275 1-920): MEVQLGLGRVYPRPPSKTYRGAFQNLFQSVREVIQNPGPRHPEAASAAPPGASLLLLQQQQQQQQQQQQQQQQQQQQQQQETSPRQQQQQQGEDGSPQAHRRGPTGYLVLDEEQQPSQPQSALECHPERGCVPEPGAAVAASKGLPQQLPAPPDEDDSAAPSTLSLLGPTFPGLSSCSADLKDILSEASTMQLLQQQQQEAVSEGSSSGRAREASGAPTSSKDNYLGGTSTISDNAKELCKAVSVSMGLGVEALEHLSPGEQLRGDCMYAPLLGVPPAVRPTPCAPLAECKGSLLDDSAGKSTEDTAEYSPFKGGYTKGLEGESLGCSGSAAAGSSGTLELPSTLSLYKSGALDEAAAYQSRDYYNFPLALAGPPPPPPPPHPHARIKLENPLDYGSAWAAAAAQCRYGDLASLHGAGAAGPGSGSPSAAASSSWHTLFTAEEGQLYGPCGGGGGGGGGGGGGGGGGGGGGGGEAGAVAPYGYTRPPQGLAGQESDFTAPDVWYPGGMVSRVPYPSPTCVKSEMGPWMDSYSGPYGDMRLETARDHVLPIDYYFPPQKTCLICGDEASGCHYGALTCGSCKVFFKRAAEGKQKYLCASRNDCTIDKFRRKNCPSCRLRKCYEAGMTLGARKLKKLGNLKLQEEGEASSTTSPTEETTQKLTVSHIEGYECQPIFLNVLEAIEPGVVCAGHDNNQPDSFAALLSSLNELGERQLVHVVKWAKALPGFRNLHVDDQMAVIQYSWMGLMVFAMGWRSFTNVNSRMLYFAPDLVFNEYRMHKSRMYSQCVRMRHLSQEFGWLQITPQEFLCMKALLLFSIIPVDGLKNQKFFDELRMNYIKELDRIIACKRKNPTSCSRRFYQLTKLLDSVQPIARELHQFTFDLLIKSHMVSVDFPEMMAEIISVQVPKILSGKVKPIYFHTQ
Procedure: The compounds of Formula I have affinity for the androgen receptor. […] The description below describes how the assay was carried out.
Competitive binding analysis was performed on baculovirus/Sf9 generated hAR extracts in the presence or absence of different concentrations of test agent and a fixed concentration of ^3H-dihydrotestosterone (^3H-DHT) as tracer. This binding assay method is a modification of a protocol previously described (Liao S., et. al. J. Steroid Biochem. 20:11-17 1984). Briefly, progressively decreasing concentrations of compounds are incubated in the presence of hAR extract (Chang et al. P.N.A.S. Vol. 89, pp. […], 1992), hydroxylapatite, and 1 nM ^3H-DHT for one hour at 4° C. Subsequently, the binding reactions are washed three times to completely remove excess unbound ^3H-DHT. hAR bound ^3H-DHT levels are determined in the presence of compounds (i.e. competitive binding) and compared to levels bound when no competitor is present (i.e. maximum binding). Compound binding affinity to the hAR is expressed as the concentration of compound at which one half of the maximum binding is inhibited. Table II below provides the results that were obtained for selected compounds (reported data is the mean of multiple tests as shown below)

[2] = target: T2, androgen receptor in MDA-MB453-MMTV clone 54-19 cells (Homo sapiens, UniProt P10275); assay: AR antagonist cell assay (MMTV-luciferase reporter, 100 pM DHT); format: cell-based
T2 sequence (P10275 1-920 Q868H): T1 sequence (P10275 1-920) with Q868H
Procedure: The compounds ability to antagonize the effects of androgen on the androgen receptor were determined in a whole cell assay as described immediately below.
Experimental Procedure for AR Antagonist Cell Assay
Cell line: MDA-MB453-MMTV clone 54-19. This cell line is a stable transfected cell line with MDA-MB453 cell background (a human breast tumor cell line expressing androgen receptor). A MMTV minimal promoter containing ARE was first cloned in front of a firefly luciferase reporter gene. Then the cascade was cloned into transfection vector pUV120puro. Electroporation method was used for transfecting MDA-MB-453 cell. Puromycin resistant stable cell line was selected. Cell Culture Media and Reagents:
Culture medium: DMEM (high glucose, Gibco cat #: 11960-044), 10% FBS, and 1% L-glutamine
Plating medium: DMEM (phenol red free), 10% charcoal treated HyClone serum, 1% L-glutamine
Assay medium: DMEM (phenol red free), 1% charcoal treated HyClone serum, 1% L-glutamine, and 1% penicillin/streptomycin
3X luciferase buffer: 2% beta-mercaptoethanol, 0.6% ATP, 0.0135% luciferine in cell lysis buffer
• 1. Cells are maintained in culture medium, splitting cells when they reach 80-90% confluence • 2. To test compounds, 10,000 cells/well are plated to opaque 96 cell culture plate in 100 ul/well plating medium, culture for overnight at 37° C. in cell culture incubator • 3. Carefully remove plating medium, then add 80 ul/well of pre-warmed assay medium, add 10 ul/well testing compound (final concentration at) 1000 nM, 200 nM, 40 nM, 8 nM, 1.6 nM, and 0.32 nM), incubate at 37° C. for 30 minutes • 4. Add 10 ul/well freshly prepared DHT (final concentration at 100 pM) to each well, incubate at 37° C. for 17 hr (overnight) • 5. Add 50 ul/well 3X luciferase buffer, incubate at room temperature for 5 minutes, then count on Luminometer
The fold induction over background by 100 pM DHT in the absence of testing compounds is standardized as 100% and experimental result is expressed as percentage of inhibition by testing compounds.
The results are reported as the mean of multiple tests as described below (the numbers of tests are indicated in the footnote). N.D. denotes that the compound was not tested.

[3] = MDA-MB453-MMTV clone 54-19, inhibition of 100 pM DHT induced luciferase, 17 hr; mean of multiple tests; read-out: AR Cell IC50
[4] = baculovirus/Sf9 hAR extract, 1 nM 3H-DHT, one hour at 4° C, mean of multiple tests, read-out: AR Binding IC50
[5] = read-out: AR Cell IC50; MDA-MB453-MMTV clone 54-19, inhibition of 100 pM DHT induced luciferase, 17 hr; mean of multiple tests

| Structure (SMILES) | IC50 [1] [nM] | IC50 [2, 3] [nM] | IC50 [1, 4] [nM] | IC50 [2, 5] [nM] |
| --- | --- | --- | --- | --- |
| C[C@@H](C[C@H](C)Oc1ccc(C#N)c(C(F)(F)F)c1)Oc1ccc(C#N)c(C(F)(F)F)c1 (stereo in doubt) [Example 20, 4,4′-[(2S,4S)-Pentane-2,4-diylbis(oxy)]bis[2-(trifluoromethyl)benzonitrile]] | 17 | 159 |  |  |
| CC(CCC(C)Oc1ccc(C#N)c(C(F)(F)F)c1)Oc1ccc(C#N)c(C(F)(F)F)c1 (stereo in doubt) [Example 23, 4,4′-[(2S,5S)-Hexane-2,5-diylbis(oxy)]bis[2-(trifluoromethyl)benzonitrile]] |  | 202 | 180 |  |
| C[C@H](Oc1ccc(C#N)c(C(F)(F)F)c1)[C@H](C)Oc1ccc(C#N)c(C(F)(F)F)c1 [Example 1, 4,4′-[(2S,3S)-Butane-2,3-diylbis(oxy)]bis[2-(trifluoromethyl)benzonitrile]] |  | 531 | 191 |  |
| C[C@@H](Oc1ccc(C#N)c(C(F)(F)F)c1)[C@@H](C)Oc1ccc(C#N)c(C(F)(F)F)c1 [Example 2, 4,4′-[(2R,3R)-Butane-2,3-diylbis(oxy)]bis[2-(trifluoromethyl)benzonitrile]] | 34 |  |  | 67 |
| C=CC(COc1ccc(C#N)c(C(F)(F)F)c1)Oc1ccc(C#N)c(C(F)(F)F)c1 (centres unmarked) [Example 3, 4,4′-[But-1-ene-3,4-diylbis(oxy)]bis[2-(trifluoromethyl)benzonitrile]] |  | 457 | 115 |  |
| CCCC(COc1ccc(C#N)c(C(F)(F)F)c1)Oc1ccc(C#N)c(C(F)(F)F)c1 (centres unmarked) [Example 4, 4,4′-[Pentane-1,2-diylbis(oxy)]bis[2-(trifluoromethyl)benzonitrile]] |  | > 1000 | 630 |  |
| COCC(COc1ccc(C#N)c(C(F)(F)F)c1)Oc1ccc(C#N)c(C(F)(F)F)c1 (centres unmarked) [Example 5, 4,4′-[(3-Methoxypropane-1,2-diyl)bis(oxy)]bis[2-(trifluoromethyl)benzonitrile]] | 56 | 187 |  |  |
| CCOCC(COc1ccc(C#N)c(C(F)(F)F)c1)Oc1ccc(C#N)c(C(F)(F)F)c1 (centres unmarked) [Example 6, 4,4′-[(3-Ethoxypropane-1,2-diyl)bis(oxy)]bis[2-(trifluoromethyl)benzonitrile]] |  | > 1000 | 124 |  |
| CC(C)NCC(COc1ccc(C#N)c(C(F)(F)F)c1)Oc1ccc(C#N)c(C(F)(F)F)c1 (centres unmarked) [Example 7] |  | > 1000 | 319 |  |
| CC(C)CCCC(COc1ccc(C#N)c(C(F)(F)F)c1)Oc1ccc(C#N)c(C(F)(F)F)c1 (centres unmarked) [Example 8] |  | > 1000 | 967 |  |
| CCCCCCC(COc1ccc(C#N)c(C(F)(F)F)c1)Oc1ccc(C#N)c(C(F)(F)F)c1 (centres unmarked) [Example 9, 4,4′-[Octane-1,2-diylbis(oxy)]bis[2-(trifluoromethyl)benzonitrile]] |  | 531 | 109 |  |
| CC1(C)CC1(COc1ccc(C#N)c(C(F)(F)F)c1)Oc1ccc(C#N)c(C(F)(F)F)c1 (centres unmarked) [Example 10, 4-[1-(4-Cyano-3-trifluoromethyl-phenoxymethyl)-2,2-dimethyl-cyclopropoxy]-2-trifluoromethyl-benzonitrile] |  | 447 | 174 |  |
| N#Cc1ccc(OCCCOc2ccc(C#N)c(C(F)(F)F)c2)cc1C(F)(F)F [Example 11, 4,4′-[Propane-1,3-diylbis(oxy)]bis[2-(trifluoromethyl)benzonitrile]] |  | > 1000 | 165 |  |
| CC(COc1ccc(C#N)c(C(F)(F)F)c1)COc1ccc(C#N)c(C(F)(F)F)c1 [Example 12, 4,4′-[(2-Methylpropane-1,3-diyl)bis(oxy)]bis[2-(trifluoromethyl)benzonitrile]] |  | > 1000 | 233 |  |
| CC(CCOc1ccc(C#N)c(C(F)(F)F)c1)Oc1ccc(C#N)c(C(F)(F)F)c1 (centres unmarked) [Example 13, 4,4′-[Butane-1,3-diylbis(oxy)]bis[2-(trifluoromethyl)benzonitrile]] | 10 |  |  | 100 |
| C[C@H](CCOc1ccc(C#N)c(C(F)(F)F)c1)Oc1ccc(C#N)c(C(F)(F)F)c1 [Example 14, 4-({(3R)-3-[4-Cyano-3-(trifluoromethyl)phenoxy]butyl}oxy)-2-(trifluoromethyl)benzonitrile] |  | 905 | 281 |  |
| C[C@@H](CCOc1ccc(C#N)c(C(F)(F)F)c1)Oc1ccc(C#N)c(C(F)(F)F)c1 [Example 15, 4-({(3S)-3-[4-Cyano-3-(trifluoromethyl)phenoxy]butyl}oxy)-2-(trifluoromethyl)benzonitrile] | 49 | 257 |  |  |
| CC(COc1ccc(C#N)c(C(F)(F)F)c1)C(C)Oc1ccc(C#N)c(C(F)(F)F)c1 (centres unmarked) [Example 16, 4-{3-[4-Cyano-3-(trifluoromethyl)phenoxy]-1,2-dimethylpropoxy}-2-(trifluoromethyl)benzonitrile] |  |  | 372 |  |

Source: US7473711B2, “Androgen modulators” (Pfizer Inc., priority 2004, dated 2009)
